Measurements reported in PMC11033320, “Activation of p53 signaling and regression of breast and prostate carcinoma cells by spirooxindole-benzimidazole small molecules” (Frontiers in Pharmacology, 2024).

Assays:
[1] = MTT cytotoxicity to normal human lung fibroblast Wi-38 cell line; type: cell-based; conditions: Wi-38 normal lung fibroblast cells, mean ± SEM, read-out: percentage of Wi-38 viability
Description: Normal human lung fibroblast Wi-38 cell line was used to detect cytotoxicity of the studied compounds (Table S8). Wi-38 cell line was cultured in DMEM medium-contained 10% fetal bovine serum (FBS), seeded as 5x10^3 cells per well in 96-well cell culture plate and incubated at 37 °C in 5% CO2 incubator. After 24 h for cell attachment, serial concentrations of the synthetic compounds were incubated with Wi-38 cells for 72 h. Cell viability was assayed by MTT method (Mosmann, 1983). Twenty microliters of 5 mg/ml MTT (Sigma, USA) was added to each well and the plate was incubated at 37 °C for 3 h. Then MTT solution was removed, 100 µl DMSO was added and the absorbance of each well was measured with a microplate reader (BMG LabTech, Germany) at 570 nm.

PC-3 cells = test: MTT assay anticancer activity, PC-3; type: cell-based; conditions: Homo sapiens, PC-3, 5 µM, mean ± SEM, read-out: growth inhibition percentage of PC-3
From the text: MTT method was done as described above.

MOLT-4 = test: NCI anticancer screening, Leukemia MOLT-4; type: cell-based; conditions: Homo sapiens; MOLT-4, 10 μM; read-out: % Growth Inhibition (GI %)
From the text: (§1) The compound has been processed according to standard method NCI-60 Human Tumor Cell Lines Screen for organic compound at development therapeutic program (DTP). Requests for access to this national resource can be submitted online at: […]

RPMI-8226 = test: NCI anticancer screening, Leukemia RPMI-8226; type: cell-based; conditions: Homo sapiens; RPMI-8226, 10 μM; read-out: % Growth Inhibition (GI %)
From the text: as §1

SR = test: NCI anticancer screening, Leukemia SR; type: cell-based; conditions: Homo sapiens, read-out: % Growth Inhibition (GI %)
From the text: as §1

EKVX = test: NCI anticancer screening, Non-Small Cell Lung Cancer EKVX; type: cell-based; conditions: Homo sapiens, read-out: % Growth Inhibition (GI %)
From the text: as §1

HOP-92 = test: NCI anticancer screening, Non-Small Cell Lung Cancer HOP-92; type: cell-based; conditions: Homo sapiens; HOP-92, 10 μM; read-out: % Growth Inhibition (GI %)
From the text: as §1

NCI-H226 = test: NCI anticancer screening, Non-Small Cell Lung Cancer NCI-H226; type: cell-based; conditions: Homo sapiens; NCI-H226, 10 μM; read-out: % Growth Inhibition (GI %)
From the text: as §1

NCI-H460 = test: NCI anticancer screening, Non-Small Cell Lung Cancer NCI-H460; type: cell-based; conditions: Homo sapiens; NCI-H460, 10 μM; read-out: % Growth Inhibition (GI %)
From the text: as §1

NCI-H522 = test: NCI anticancer screening, Non-Small Cell Lung Cancer NCI-H522; type: cell-based; conditions: Homo sapiens; NCI-H522, 10 μM; read-out: % Growth Inhibition (GI %)
From the text: as §1

SF-539 = test: NCI anticancer screening, CNS Cancer SF-539; type: cell-based; conditions: Homo sapiens; SF-539, 10 μM; read-out: % Growth Inhibition (GI %)
From the text: as §1

SNB-19 = test: NCI anticancer screening, CNS Cancer SNB-19; type: cell-based; conditions: Homo sapiens; SNB-19, 10 μM; read-out: % Growth Inhibition (GI %)
From the text: as §1

SK-MEL-2 = test: NCI anticancer screening, Melanoma SK-MEL-2; type: cell-based; conditions: Homo sapiens; SK-MEL-2, 10 μM; read-out: % Growth Inhibition (GI %)
From the text: as §1

UACC-257 = test: NCI anticancer screening, Melanoma UACC-257; type: cell-based; conditions: Homo sapiens; UACC-257, 10 μM; read-out: % Growth Inhibition (GI %)
From the text: as §1

UACC-62 = test: NCI anticancer screening, Melanoma UACC-62; type: cell-based; conditions: Homo sapiens; UACC-62, 10 μM; read-out: % Growth Inhibition (GI %)
From the text: as §1

OVCAR-3 = test: NCI anticancer screening, Ovarian Cancer OVCAR-3; type: cell-based; conditions: Homo sapiens; OVCAR-3, 10 μM; read-out: % Growth Inhibition (GI %)
From the text: as §1

CAKI-1 = test: NCI anticancer screening, Renal Cancer CAKI-1; type: cell-based; conditions: Homo sapiens; CAKI-1, 10 μM; read-out: % Growth Inhibition (GI %)
From the text: as §1

TK-10 = test: NCI anticancer screening, Renal Cancer TK-10; type: cell-based; conditions: Homo sapiens; TK-10, 10 μM; read-out: % Growth Inhibition (GI %)
From the text: as §1

UO-31 = test: NCI anticancer screening, Renal Cancer UO-31; type: cell-based; conditions: Homo sapiens; UO-31, 10 μM; read-out: % Growth Inhibition (GI %)
From the text: as §1

T-47D = test: NCI anticancer screening, Breast Cancer T-47D; type: cell-based; conditions: Homo sapiens, T47D, read-out: % Growth Inhibition (GI %)
From the text: as §1

[2] = test system: leukemia cells (CCRF-CEM; HL-60 (TB); K-562; MOLT-4; RPMI-8226, SR); test: NCI anticancer screening, leukemia subpanel; type: cell-based, human; conditions: smaller GI% than the other compounds
From the text: as §1

[3] = biological target: T1, Mdm2 (residues 1–118 T47W) (Homo sapiens, UniProt Q00987, T47W); test: MDM2 binding by microscale thermophoresis (MST)
T1 construct: Mdm2 (residues 1–118 T47W; 500 nM)
Description: MST is a complementary biophysical assay to assess the binding of a small molecule to its receptor. […] Experiments were performed in 50 mM phosphate buffer at pH 7.4 containing 150 mM NaCl, 5 mM DTT, and 5% DMSO. […] Kd values and uncertainties were calculated using the MO Affinity Analysis software.

T1 sequence (Q00987 1-118 T47W): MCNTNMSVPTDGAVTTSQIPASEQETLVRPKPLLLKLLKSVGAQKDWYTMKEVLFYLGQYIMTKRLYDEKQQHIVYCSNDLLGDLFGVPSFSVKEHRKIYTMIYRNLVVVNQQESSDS

Row | SMILES | viability at 72 h, 5 µM [1] | inhibition at 5 µM (PC-3 cells) | inhibition at 10 µM (MOLT-4) | inhibition at 10 µM (RPMI-8226) | inhibition at 10 µM (SR) | inhibition at 10 µM (EKVX) | inhibition at 10 µM (HOP-92) | inhibition at 10 µM (NCI-H226) | inhibition at 10 µM (NCI-H460) | inhibition at 10 µM (NCI-H522) | inhibition at 10 µM (SF-539) | inhibition at 10 µM (SNB-19) | inhibition at 10 µM (SK-MEL-2) | inhibition at 10 µM (UACC-257) | inhibition at 10 µM (UACC-62) | inhibition at 10 µM (OVCAR-3) | inhibition at 10 µM (CAKI-1) | inhibition at 10 µM (TK-10) | inhibition at 10 µM (UO-31) | inhibition at 10 µM (T-47D) | further results
1 | O=C(c1nc2ccccc2[nH]1)[C@H]1[C@H](c2ccc(Cl)cc2)C2CSCN2[C@]12C(=O)Nc1ccccc12 (stereo partly drawn) [Compound 6b, (3S,6′R)-6'-(1H-Benzo [d]imidazole-2-carbonyl)-7'-(4-chlorophenyl)-3′,6′,7′,7a′-tetrahydro-1′H-spiro [indoline-3.5′-pyrrolo [1,2-c]thiazol]-2-one] | 49.6 ± 1.19% | 51.9% | 68.9% | 63.2% | 65.9% | 80.7% | 100% | 74% | 74.3% | 87.9% | 84.1% | 77.7% | 110% | 95.2% | 73.9% | 86.4% | 68.3% | 121% | 49% | 59.9% | GI% for MOLT-4, RPMI-8226, and SR cancer cells [2]: 75%
2 | O=C(c1nc2ccccc2[nH]1)[C@H]1[C@H](c2ccc(C(F)(F)F)cc2)C2CSCN2[C@]12C(=O)Nc1ccccc12 (stereo partly drawn) [Compound 6c, (3S,6′R)-6'-(1H-Benzo [d]imidazole-2-carbonyl)-7'-(4-(trifluoromethyl)phenyl)-3′,6′,7′,7a′-tetrahydro-1′H-spiro [indoline-3.5′-pyrrolo [1,2-c]thiazol]-2-one] | 59.9 ± 2.84% | 54.1 ± 1.35% | 82.7% | 72% | 85.6% | 87% | 109% | 79% | 66.8% | 87.7% | 91.6% | 84.9% | 108% | 98.5% | 77.5% | 87.7% | 78.6% | 120% | 55.4% | 69.7% | 
3 | O=C(c1nc2ccccc2[nH]1)[C@H]1[C@H](c2cccc(O)c2)C2CSCN2[C@]12C(=O)Nc1ccccc12 (stereo partly drawn) [Compound 6h, (3S,6′R)-6'-(1H-Benzo [d]imidazole-2-carbonyl)-7'-(3-hydroxyphenyl)-3′,6′,7′,7a′-tetrahydro-1′H-spiro [indoline-3.5′-pyrrolo [1,2-c]thiazol]-2-one] | 51 ± 1.83% | 40.4 ± 1.25% | 91.2% | 82.4% | 79.1% | 96.6% | 98.3% | 99.1% | 94.8% | 83.9% | 90% | 97.8% | 102% | 91.9% | 80% | 97.2% | 84.1% | 113% | 60.6% | 76.3% | Kd [3]: 6.68 µM
4 | O=C(c1nc2ccccc2[nH]1)[C@H]1[C@H](c2ccccc2O)C2CSCN2[C@]12C(=O)Nc1ccccc12 (stereo partly drawn) [Compound 6j, (3S,6′R)-6'-(1H-Benzo [d]imidazole-2-carbonyl)-7'-(2-hydroxyphenyl)-3′,6′,7′,7a′-tetrahydro-1′H-spiro [indoline-3.5′-pyrrolo [1,2-c]thiazol]-2-one] | 40 ± 2.38% | 40.3 ± 3.44% | 89.5% | 104% | 94% | 91.6% | 97.3% | 91.3% | 97.4% | 87.2% | 98.5% | 93.7% | 104% | 95.6% | 77.3% | 96.3% | 84% | 115% | 73.9% | 80.9% | 
5 | CN(C)c1ccc([C@@H]2C3CSCN3[C@]3(C(=O)Nc4ccccc43)[C@H]2C(=O)c2nc3ccccc3[nH]2)cc1 (stereo partly drawn) [Compound 6k, (3S,6′R)-6'-(1H-Benzo [d]imidazole-2-carbonyl)-7'-(4-(dimethylamino)phenyl)-3′,6′,7′,7a′-tetrahydro-1′H-spiro [indoline-3.5′-pyrrolo [1,2-c]thiazol]-2-one] | 38.6 ± 3.02% | 41.6 ± 0.729% | 85.6% |  | 84.3% | 91.4% | 104% | 91.4% | 102% | 87.9% | 99.6% | 91.7% | 106% | 90.2% | 84.4% | 103% | 85.8% | 111% | 73.4% | 83% | 
6 | O=C(c1nc2ccccc2[nH]1)[C@H]1[C@H](c2cccc(F)c2)C2CSCN2[C@]12C(=O)Nc1ccccc12 (stereo partly drawn) [Compound 6m, (3S,6′R)-6'-(1H-Benzo [d]imidazole-2-carbonyl)-7'-(3-fluorophenyl)-3′,6′,7′,7a′-tetrahydro-1′H-spiro [indoline-3.5′-pyrrolo [1,2-c]thiazol]-2-one] | 43.7 ± 2.29% | 60.1 ± 0.521% | 85.5% | 83.6% | 82.8% | 88.2% | 99.7% | 92.6% | 97.3% | 77.8% | 86.7% | 91.9% | 95.7% | 99% | 80.1% | 103% | 74.7% | 116% | 65.3% | 79.8% | 
7 | O=C(c1nc2ccccc2[nH]1)[C@H]1[C@H](c2ccco2)C2CSCN2[C@]12C(=O)Nc1ccccc12 (stereo partly drawn) [Compound 6n, (3S,6′R)-6'-(1H-Benzo [d]imidazole-2-carbonyl)-7'-(furan-2-yl)-3′,6′,7′,7a′-tetrahydro-1′H-spiro [indoline-3.5′-pyrrolo [1,2-c]thiazol]-2-one] | 46.2 ± 1.47% | 52.5 ± 1.46% | 96.8% | 101% | 86.8% | 103% | 113% | 92.2% | 102% | 99.7% | 96.4% | 96.8% | 124% | 116% | 90.6% | 110% | 88.5% | 133% | 61.7% | 84.8% | 
